Common to all, as to assay type: cell-based
For assay [1], the system named is H. influenzae ATCC 10211 and E. coli ATCC 25922. Description: MIC, Gram-negative bacteria (panel). The following applies: across two Gram-negative strains. The procedure: (§1) Representative compounds were assayed for antimicrobial activity as follows: Minimum Inhibitory Concentrations (“MICs”) were determined by the microbroth dilution method as per NCCLS guidelines (National Committee for Clinical Laboratory Standards. 2000. Methods for dilution antimicrobial susceptibility tests for bacteria that grow aerobically, 5th ed. M7-A5. National Committee for Clinical Laboratory Standards, Wayne, Pa.), except that all growth incubations were conducted at 37° C. Bacterial cultures were tested in the following bacteriological media: S. aureus, S. epidermidis, and E. coli in Cation-Adjusted Mueller-Hinton Broth, S. pneumoniae in THY Broth supplemented with 1 mg/mL catalase under 5% CO2 atmosphere, S. pyogenes in THY Broth, E. faecalis in BHI Broth, H. influenzae in BHI Broth supplemented with 0.75 μL of 1 mg/mL NAD and 150 μL of 1 mg/ml hematin per 5 mL, and M. smegmatis in Middlebrook Broth plus ADC Enrichment.
(§2) S. aureus ATCC […], S. epidermidis ATCC 12228, S. pneumoniae ATCC6303, S. pyogenes ATCC 19615 and E. faecalis ATCC 29212 are rifampin-susceptible Gram-positive strains. […] H. influenzae ATCC 10211 and E. coli ATCC 25922 are Gram-negative bacteria.

For assay [2], the system named is Enterococcus faecalis ATCC29212. As to the kind of experiment: MIC, microbroth dilution (NCCLS). The following applies: rifS strain, BHI Broth, 37° C., read-out: Antimicrobial activity (MIC).
Assay [3] relates to Haemophilus influenzae ATCC10211. As to the kind of experiment: MIC, microbroth dilution (NCCLS). The conditions noted are these: rifS strain, BHI Broth with NAD and hematin, 37° C., read-out: Antimicrobial activity (MIC).
Assay [4] deals with Streptococcus pyogenes ATCC19615. Description: MIC, microbroth dilution (NCCLS). The following applies: rifS strain, THY Broth, 37° C., read-out: Antimicrobial activity (MIC). For orientation: In broth dilution the organism is exposed to a series of concentrations in liquid medium.
Assay [5] deals with Mycobacterium smegmatis ATCC700084. As to the kind of experiment: MIC, microbroth dilution (NCCLS). The following applies: Mycolicibacterium smegmatis, rifS strain, Middlebrook Broth plus ADC Enrichment, 37° C., read-out: Antimicrobial activity (MIC).
A short description of assay [6]: MIC, rifampin-susceptible Gram-positive strains (panel). The conditions noted are these: across five rifampin-susceptible Gram-positive strains. As for the experimental part: as §1, §2
For assay [7], the system named is Staphylococcus aureus ATCC29213. Description: MIC, microbroth dilution (NCCLS). The following applies: rifS strain, Cation-Adjusted Mueller-Hinton Broth, 37° C., read-out: Antimicrobial activity (MIC).
Assay [8] deals with Escherichia coli ATCC25922. Description: MIC, microbroth dilution (NCCLS). The conditions noted are these: rifS strain, Cation-Adjusted Mueller-Hinton Broth, 37° C., read-out: Antimicrobial activity (MIC).
Assay [9] has as its system Streptococcus pneumoniae ATCC6303. Description: MIC, microbroth dilution (NCCLS). The following applies: rifS strain, THY Broth with 1 mg/mL catalase, 5% CO2, 37° C., read-out: Antimicrobial activity (MIC).
The subject of assay [10] is Staphylococcus epidermidis ATCC12228. Description: MIC, microbroth dilution (NCCLS). The following applies: rifS strain, Cation-Adjusted Mueller-Hinton Broth, 37° C., read-out: Antimicrobial activity (MIC).
Assay [11] relates to Staphylococcus aureus ATCC29213 rpoB^D417Y. As to the kind of experiment: microbe, parasite or virus in culture. In a few lines:
(§3)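 MICs by NCCLS broth microdilution, incubation at 37 °C, in cation-adjusted Mueller-Hinton broth. Strains: rifampin-resistant S. aureus ATCC 29213 with rpoB D417Y or H418Y, and quinolone-resistant EN1252a carrying gyrA S84L plus grlA S80F.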

Assay [12] relates to Staphylococcus aureus EN1252a gyrA^S84L grlA^S80F. As to the kind of experiment: microbe, parasite or virus in culture. The following applies: read-out: Antimicrobial activity (MIC). In a few lines:
as §3

In assay [13] the test system is Staphylococcus aureus ATCC29213 rpoB^H418Y. As to the kind of experiment: microbe, parasite or virus in culture. In a few lines: as §3
[14] abbreviates: ATCC29213, read-out: Antimicrobial activity (MIC).

Converted amounts (≈) assume the structure as drawn. Like-named read-outs stand apart in the source and are kept apart here. Where only a bound is given, the exact number is not on record here.

In the case of `CO[C@H]1/C=C/O[C@@]2(C)Oc3c(C)c(O)c4c(O)c(c(/C=N/N5CCN(C)CC5)c(O)c4c3C2=O)NC(=O)/C(C)=C\C=C\[C@H](C)[C@H](O)[C@@H](C)[C@@H](O)[C@@H](C)[C@H](OC(C)=O)[C@@H]1C` [rifampin, reference compound], the MIC in assay [1] is 0.24 to 16 µg/mL (≈ 0.292 to 19.4 µM); in assay [2], 1 µg/mL (≈ 1.22 µM); in [3], 0.24 µg/mL (≈ 0.292 µM); in assay [4], 0.013 µg/mL (≈ 0.0158 µM); in assay [5] it was 64 µg/mL; in assay [6], 0.008 to 1 µg/mL (≈ 0.00972 to 1.22 µM). Besides, the MIC in assay [7] is 0.008 µg/mL (≈ 0.00972 µM); in assay [8], 16 µg/mL (≈ 19.4 µM); in assay [9], 0.061 µg/mL (≈ 0.0741 µM); in assay [10], 0.03 µg/mL (≈ 0.0365 µM); in [11] (ATCC29213), more than 64 µg/mL; in assay [11] (setting [14]), more than 64 µg/mL. Besides, the MIC in [12] came out at 0.004 µg/mL (≈ 0.00486 µM); in assay [13] (ATCC29213), 8 µg/mL (≈ 9.72 µM); in assay [13] (setting [14]) it was 8 µg/mL (≈ 9.72 µM).
For `CO[C@H]1/C=C/O[C@@]2(C)Oc3c(C)c(O)c4c(c3C2=O)C(=O)C(N2CCC(NCC3CCN(c5nc6c(cc5F)c(=O)c(C(=O)O)cn6-c5ccc(F)cc5F)C3)CC2)=C(NC(=O)/C(C)=C\C=C\[C@H](C)[C@H](O)[C@@H](C)[C@@H](O)[C@@H](C)[C@H](OC(C)=O)[C@@H]1C)C4=O` (mixture of isomers) [Example 37], the MIC in [2] was in the range of 2 to 32 µg/mL (≈ 1.67 to 26.8 µM); in assay [3], 0.125 to 2 µg/mL (≈ 0.105 to 1.67 µM); in [4] it was 0.008 to 0.063 µg/mL (≈ 0.00669 to 0.0527 µM); in assay [5], 0.5 to 64 µg/mL; in [7], 0.004 to 0.5 µg/mL (≈ 0.00335 to 0.418 µM); in assay [8], 0.125 to 8 µg/mL (≈ 0.105 to 6.69 µM). The MIC in assay [9] fell in the range of 0.008 to 0.125 µg/mL (≈ 0.00669 to 0.105 µM); in assay [10], 0.008 to 0.063 µg/mL (≈ 0.00669 to 0.0527 µM); in [11] (setting [14]), 0.06 to 32 µg/mL (≈ 0.0502 to 26.8 µM); in [12] it was 0.004 to 0.5 µg/mL (≈ 0.00335 to 0.418 µM); in [13] (setting [14]) it was 0.06 to 16 µg/mL (≈ 0.0502 to 13.4 µM).
Regarding `CO[C@H]1/C=C/O[C@@]2(C)Oc3c(C)c(O)c4c(c3C2=O)C(=O)C(N2CCC(N3CCN(c5c(F)cc6c(=O)c(C(=O)O)cn(C7CC7)c6c5Cl)CC3)CC2)=C(NC(=O)/C(C)=C\C=C\[C@H](C)[C@H](O)[C@@H](C)[C@@H](O)[C@@H](C)[C@H](OC(C)=O)[C@@H]1C)C4=O` [Example 38, 3-{4-[1-(3-Carboxy-8-chloro-1-cyclopropyl-6-fluoro-4-oxo-1,4-dihydroquinolin-7-yl)-piperazin-4-yl]-piperidin-1-yl}rifamycin S], the MIC was 2 to 32 µg/mL (≈ 1.75 to 28 µM) in assay [2]; 0.125 to 2 µg/mL (≈ 0.109 to 1.75 µM) in assay [3]; 0.008 to 0.063 µg/mL (≈ 0.007 to 0.0551 µM) in assay [4]; 0.5 to 64 µg/mL in assay [5]; 0.004 to 0.5 µg/mL (≈ 0.0035 to 0.438 µM) in [7]; 0.125 to 8 µg/mL (≈ 0.109 to 7 µM) in assay [8]. Besides, the MIC in assay [9] was in the range of 0.008 to 0.125 µg/mL (≈ 0.007 to 0.109 µM); in [10], 0.008 to 0.063 µg/mL (≈ 0.007 to 0.0551 µM); in [11] (setting [14]), 0.06 to 32 µg/mL (≈ 0.0525 to 28 µM); in assay [12], 0.004 to 0.5 µg/mL (≈ 0.0035 to 0.438 µM); in assay [13] (setting [14]) it was 0.06 to 16 µg/mL (≈ 0.0525 to 14 µM).
In the case of `COc1c(N2CCN(C3CCN(C4=C5NC(=O)/C(C)=C\C=C\[C@H](C)[C@H](O)[C@@H](C)[C@@H](O)[C@@H](C)[C@H](OC(C)=O)[C@H](C)[C@@H](OC)/C=C/O[C@@]6(C)Oc7c(C)c(O)c(c(c7C6=O)C4=O)C5=O)CC3)CC2)c(F)cc2c(=O)c(C(=O)O)cn(C3CC3)c12` [Example 31, 3-{4-[1-(3-Carboxy-1-cyclopropyl-6-fluoro-8-methoxy-4-oxo-1,4-dihydroquinolin-7-yl)-piperazin-4-yl]-piperidin-1-yl}rifamycin S], the MIC in [2] was 2 to 32 µg/mL (≈ 1.76 to 28.1 µM); in [3] it was 0.125 to 2 µg/mL (≈ 0.11 to 1.76 µM); in assay [4], 0.008 to 0.063 µg/mL (≈ 0.00703 to 0.0553 µM); in assay [5], 0.5 to 64 µg/mL; in assay [7], 0.004 to 0.5 µg/mL (≈ 0.00351 to 0.439 µM); in assay [8], 0.125 to 8 µg/mL (≈ 0.11 to 7.03 µM). For the same compound, the MIC in assay [9] was in the range of 0.008 to 0.125 µg/mL (≈ 0.00703 to 0.11 µM); in [10] it was 0.008 to 0.063 µg/mL (≈ 0.00703 to 0.0553 µM); in assay [11] (setting [14]), 0.06 to 32 µg/mL (≈ 0.0527 to 28.1 µM); in assay [12], 0.004 to 0.5 µg/mL (≈ 0.00351 to 0.439 µM); in assay [13] (setting [14]), 0.06 to 16 µg/mL (≈ 0.0527 to 14.1 µM).

(Values after patent publication US7247634B2, “Rifamycin derivatives effective against drug-resistant microbes” (Cumbre Pharmaceuticals Inc., priority 2004, dated 2007).)
